Numbers after ± are expanded uncertainties.
Assay: mn = molality of the nth substance listed, in mol/kg
Details: 75 kPa, Liquid; for viscosity: Capillary tube (Ostwald / Ubbelohde) method; for speed of sound: Frequency=3 MHz, Sing-around technique in a fixed-path interferometer; for mass density: Vibrating tube method

CCC(N)C(=O)O (stereo not drawn) [(.+-.)-α-aminobutyric acid] + O
Details | mass density [kg/m3] | speed of sound [m/s] | viscosity [mPa·s]
293.15 K, m1 = 0.09999 | 1001.01 ± 0.6 | 1490.7 ± 4.1 | 1.042 ± 0.031
293.15 K, m1 = 0.2999 | 1006.4 ± 0.6 | 1506.8 ± 4.1 | 1.109 ± 0.031
293.15 K, m1 = 0.4999 | 1011.57 ± 0.6 | 1522.6 ± 4.1 | 1.181 ± 0.031
293.15 K, m1 = 0.7 | 1016.56 ± 0.6 | 1538.5 ± 4.1 | 1.266 ± 0.031
293.15 K, m1 = 0.9001 | 1021.37 ± 0.6 | 1554.2 ± 4.1 | 1.358 ± 0.031
293.15 K, m1 = 1 | 1023.7 ± 0.6 | 1561.8 ± 4.1 | 1.416 ± 0.031
298.15 K, m1 = 0.09999 | 999.805 ± 0.6 | 1504.7 ± 4.1 | 0.905 ± 0.03
298.15 K, m1 = 0.2999 | 1005.12 ± 0.6 | 1519.9 ± 4.1 | 0.97 ± 0.031
298.15 K, m1 = 0.4999 | 1010.25 ± 0.6 | 1535.1 ± 4.1 | 1.057 ± 0.031
298.15 K, m1 = 0.7 | 1015.2 ± 0.6 | 1550 ± 4.1 | 1.121 ± 0.031
298.15 K, m1 = 0.9001 | 1019.98 ± 0.6 | 1565.1 ± 4.1 | 1.199 ± 0.031
298.15 K, m1 = 1 | 1022.3 ± 0.6 | 1572.4 ± 4.1 | 1.243 ± 0.031
303.15 K, m1 = 0.09999 | 998.37 ± 0.6 | 1516.8 ± 4.1 | 0.813 ± 0.03
303.15 K, m1 = 0.2999 | 1003.66 ± 0.6 | 1531.3 ± 4.1 | 0.869 ± 0.03
303.15 K, m1 = 0.4999 | 1008.75 ± 0.6 | 1545.8 ± 4.1 | 0.93 ± 0.03
303.15 K, m1 = 0.7 | 1013.66 ± 0.6 | 1560 ± 4.1 | 0.997 ± 0.031
303.15 K, m1 = 0.9001 | 1018.4 ± 0.6 | 1574.5 ± 4.1 | 1.061 ± 0.031
303.15 K, m1 = 1 | 1020.7 ± 0.6 | 1581.7 ± 4.1 | 1.097 ± 0.031
308.15 K, m1 = 0.09999 | 996.759 ± 0.6 | 1526.9 ± 4.1 | 0.731 ± 0.03
308.15 K, m1 = 0.2999 | 1002 ± 0.6 | 1540.8 ± 4.1 | 0.781 ± 0.03
308.15 K, m1 = 0.4999 | 1007.05 ± 0.6 | 1554.7 ± 4.1 | 0.834 ± 0.03
308.15 K, m1 = 0.7 | 1011.92 ± 0.6 | 1568.6 ± 4.1 | 0.891 ± 0.03
308.15 K, m1 = 0.9001 | 1016.62 ± 0.6 | 1582.5 ± 4.1 | 0.949 ± 0.031
308.15 K, m1 = 1 | 1018.9 ± 0.6 | 1589.5 ± 4.1 | 0.979 ± 0.031
313.15 K, m1 = 0.09999 | 994.9 ± 0.6 | 1535.7 ± 4.1 | 0.661 ± 0.03
313.15 K, m1 = 0.2999 | 999.99 ± 0.6 | 1548.7 ± 4.1 | 0.706 ± 0.03
313.15 K, m1 = 0.4999 | 1004.83 ± 0.6 | 1561.8 ± 4.1 | 0.754 ± 0.03
313.15 K, m1 = 0.7 | 1009.41 ± 0.6 | 1574.7 ± 4.1 | 0.804 ± 0.03
313.15 K, m1 = 0.9001 | 1013.72 ± 0.6 | 1588 ± 4.1 | 0.853 ± 0.03
313.15 K, m1 = 1 | 1015.78 ± 0.6 | 1595.1 ± 4.1 | 0.895 ± 0.03
